According to ChEMBL document CHEMBL3045530, “Synthesis, antimycobacterial, antiviral, antimicrobial activities, and QSAR studies of isonicotinic acid-1-(substituted phenyl)-ethylidene/cycloheptylidene hydrazides” (Med Chem Res, 2012):
Converted amounts (≈) assume the structure as drawn.

Key:
[1] = system: Escherichia coli; test: Antimicrobial activity against Escherichia coli after 24 hr by tube dilution method; type: functional
[2] = Cytotoxicity against Homo sapiens (human) HEL cells assessed as alteration in cell morphology by microscopy; type: cell-based; conditions: for MCC: read-out: MTC
[3] = system: Punta Toro virus; test: Antiviral activity against Punta Toro virus infected Vero cells assessed as inhibition of virus-induced cytopathicity; type: functional, organism-based
[4] = system: Vesicular stomatitis virus; test: Antiviral activity against Vesicular stomatitis virus infected human HeLa cells assessed as inhibition of virus-induced cytopathicity by microscopy; type: functional, organism-based
[5] = system: Coxsackievirus B4; test: Antiviral activity against Human coxsackievirus B4 infected human HeLa cells assessed as inhibition of virus-induced cytopathicity by microscopy; type: functional, organism-based; conditions: Enterovirus B
[6] = Cytotoxicity against Homo sapiens (human) HeLa cells assessed as alteration in cell morphology by microscopy; type: cell-based; conditions: read-out: MTC
[7] = system: Aspergillus niger; test: Antimicrobial activity against Aspergillus niger after 7 days by tube dilution method; type: functional
[8] = Cytotoxicity against Homo sapiens (human) MT4 cells after 4 days by MTT assay; type: cell-based
[9] = system: Mammalian orthoreovirus 1; test: Antiviral activity against Mammalian orthoreovirus 1 infected Vero cells assessed as inhibition of virus-induced cytopathicity by microscopy; type: functional, organism-based; conditions: Mammalian orthoreovirus 1, Vero
[10] = system: Human respirovirus 3; test: Antiviral activity against Human parainfluenza virus 3 infected Vero cells assessed as inhibition of virus-induced cytopathicity by microscopy; type: functional, organism-based; conditions: Human respirovirus 3, Vero
[11] = system: Human alphaherpesvirus 2; test: Antiviral activity against Human herpesvirus 2 strain G infected human HEL cells assessed as inhibition of virus-induced cytopathicity by microscopy; type: functional, organism-based; conditions: Human alphaherpesvirus 2, strain G
[12] = system: Bacillus subtilis; test: Antimicrobial activity against Bacillus subtilis after 24 hr by tube dilution method; type: functional
[13] = system: Sindbis virus; test: Antiviral activity against Sindbis virus infected Vero cells assessed as inhibition of virus-induced cytopathicity; type: functional, organism-based
[14] = system: Human immunodeficiency virus 1; test: Antiviral activity against Human immunodeficiency virus 1 IIIB infected MT4 cells assessed as inhibition of virus-induced cytopathic effect after 4 days by MTT assay; type: functional, organism-based; conditions: MT4, 96 h
[15] = system: Staphylococcus aureus; test: Antimicrobial activity against Staphylococcus aureus after 24 hr by tube dilution method; type: functional
[16] = system: HEL; test: Cytostatic against Homo sapiens (human) HEL cells assessed as alteration in cell morphology by microscopy; type: ADME, cell-based
[17] = system: Respiratory syncytial virus; test: Antiviral activity against Respiratory syncytial virus infected human HeLa cells assessed as inhibition of virus-induced cytopathicity by microscopy; type: functional, organism-based
[18] = system: Coxsackievirus B4; test: Antiviral activity against Human coxsackievirus B4 infected Vero cells assessed as inhibition of virus-induced cytopathicity; type: functional, organism-based; conditions: Enterovirus B
[19] = system: Human herpesvirus 3 strain Oka vaccine; test: Antiviral activity against Human herpesvirus 3 strain Oka vaccine OKA 07-1 (Varicella zoster virus ) infected in human HEL cells assessed as inhibition of virus-induced cytopathicity; type: functional, organism-based; conditions: Human alphaherpesvirus 3, HEL
[20] = system: Vaccinia virus; test: Antiviral activity against Vaccinia virus infected human HEL cells assessed as inhibition of virus-induced cytopathicity by microscopy; type: functional, organism-based; conditions: Orthopoxvirus vaccinia
[21] = system: Human alphaherpesvirus 1; test: Antiviral activity against TK(-) aciclovir-resistant Human herpesvirus 1 strain KOS infected in human HEL cells assessed as inhibition of virus-induced cytopathicity; type: functional, organism-based; conditions: Human alphaherpesvirus 1, KOS
[22] = Cytotoxicity against Chlorocebus aethiops (African green monkey) Vero cells assessed as alteration in cell morphology by microscopy; type: cell-based; conditions: chlorocebus sabaeus, read-out: MTC
[23] = system: Candida albicans; test: Antimicrobial activity against Candida albicans after 48 hr by tube dilution method; type: functional
[24] = system: Human immunodeficiency virus 2; test: Antiviral activity against Human immunodeficiency virus type 2 (ISOLATE ROD) infected MT4 cells assessed as inhibition of virus-induced cytopathic effect after 4 days by MTT assay; type: functional, organism-based; conditions: Human immunodeficiency virus 2, ISOLATE ROD, MT4, 96 h
[25] = system: Human alphaherpesvirus 1; test: Antiviral activity against Human herpesvirus 1 strain KOS infected human HEL cells assessed as inhibition of virus-induced cytopathicity by microscopy by microscopy; type: functional, organism-based; conditions: Human alphaherpesvirus 1, KOS
[26] = system: Human herpesvirus 5 strain AD169; test: Antiviral activity against Human herpesvirus 5 strain AD169 Davis infected human HEL cells assessed as inhibition of virus-induced cytopathicity by microscopy; type: functional, organism-based; conditions: Human betaherpesvirus 5, Davis

| Structure (SMILES) | -logMIC [1] | CC50 [2] [µg/mL] | MCC [2] [µg/mL] | EC50 [3] [µg/mL] | EC50 [4] [µg/mL] | EC50 [5] [µg/mL] | MCC [6] [µg/mL] | -logMIC [7] | CC50 at 96 h [8] [µg/mL] | EC50 [9] [µg/mL] | EC50 [10] [µg/mL] | EC50 [11] [µg/mL] | -logMIC [12] | EC50 [13] [µg/mL] | EC50 [14] [µg/mL] | -logMIC [15] | Activity [16] | EC50 [17] [µg/mL] | -logMIC [23] | EC50 [24] [µg/mL] | other results |
| --- | --- | --- | --- | --- | --- | --- | --- | --- | --- | --- | --- | --- | --- | --- | --- | --- | --- | --- | --- | --- | --- |
| C/C(=N\NC(=O)c1ccncc1)c1ccc([N+](=O)[O-])cc1 | 2.36 | 54 (≈ 190 µM) | > 100 | > 20 | > 20 | > 20 | 100 | 2.36 | 77 (≈ 271 µM) | > 20 | > 20 | > 100 | 2.06 | > 20 | > 77 | 2.06 | Toxic | > 20 | 2.36 | > 77 | EC50 [18]: > 20 µg/mL; EC50 [19]: > 20 µg/mL; EC50 [20]: > 100 µg/mL; EC50 [21]: > 100 µg/mL; MCC [22]: 100 µg/mL; EC50 [25]: > 100 µg/mL; EC50 [26]: > 20 µg/mL |
| COc1ccc(/C(C)=N/NC(=O)c2ccncc2)c(OC)c1 | 2.08 | 10 (≈ 33.4 µM) | > 100 | > 20 | > 4 | > 4 | 20 | 2.38 | 12 (≈ 40.1 µM) | > 20 | > 20 | > 100 | 2.38 | > 20 | > 12 | 2.38 | Toxic | > 4 | 2.68 | > 12 | EC50 [18]: > 20 µg/mL; EC50 [19]: > 20 µg/mL; EC50 [20]: > 100 µg/mL; EC50 [21]: > 100 µg/mL; MCC [22]: 100 µg/mL; EC50 [25]: > 100 µg/mL; EC50 [26]: > 20 µg/mL |
| C/C(=N\NC(=O)c1ccncc1)c1ccc(Br)cc1 | 2.41 | 51 (≈ 160 µM) | ≥ 20 | > 20 | > 4 | > 4 | 20 | 2.41 | 43 (≈ 135 µM) | > 20 | > 20 | > 20 | 2.1 | > 20 | > 43 | 2.1 | Toxic | > 4 | 2.41 | > 43 | EC50 [18]: > 20 µg/mL; EC50 [19]: > 20 µg/mL; EC50 [20]: > 20 µg/mL; EC50 [21]: > 20 µg/mL; MCC [22]: ≥ 20 µg/mL; EC50 [25]: > 20 µg/mL; EC50 [26]: > 20 µg/mL |
| C/C(=N\NC(=O)c1ccncc1)c1ccc(Cl)cc1Cl | 2.39 | 11 (≈ 35.7 µM) | > 100 | > 20 | > 20 | > 20 | 100 | 2.39 | 38 (≈ 123 µM) | > 20 | > 20 | > 100 | 2.09 | > 20 | > 38 | 2.09 | Toxic | > 20 | 2.69 | > 38 | EC50 [18]: > 20 µg/mL; EC50 [19]: > 20 µg/mL; EC50 [20]: > 100 µg/mL; EC50 [21]: > 100 µg/mL; MCC [22]: 100 µg/mL; EC50 [25]: > 100 µg/mL; EC50 [26]: > 20 µg/mL |
| C/C(=N\NC(=O)c1ccncc1)c1cccc([N+](=O)[O-])c1 | 2.36 | 13 (≈ 45.7 µM) | 100 | > 4 | > 4 | > 4 | 20 | 2.36 | 63 (≈ 222 µM) | > 4 | > 4 | > 20 | 2.06 | > 4 | > 63 | 2.06 | Toxic | > 4 | 2.36 | > 63 | EC50 [18]: > 4 µg/mL; EC50 [19]: > 4 µg/mL; EC50 [20]: > 20 µg/mL; EC50 [21]: > 20 µg/mL; MCC [22]: 20 µg/mL; EC50 [25]: > 20 µg/mL; EC50 [26]: > 20 µg/mL |
| COc1ccc(OC)c(/C(C)=N/NC(=O)c2ccncc2)c1 | 2.68 | 100 (≈ 334 µM) | > 100 | > 100 | > 100 | > 100 | > 100 | 2.38 | 88 (≈ 294 µM) | > 100 | > 100 | > 100 | 2.08 | > 100 | > 88 | 2.08 | Toxic | > 100 | 2.38 | > 88 | EC50 [18]: > 100 µg/mL; EC50 [19]: > 100 µg/mL; EC50 [20]: > 100 µg/mL; EC50 [21]: > 100 µg/mL; MCC [22]: > 100 µg/mL; EC50 [25]: > 100 µg/mL; EC50 [26]: > 100 µg/mL |
| C/C(=N\NC(=O)c1ccncc1)c1ccccc1O | 2.31 | 0.4 (≈ 1.57 µM) | 100 | > 4 | > 0.2 | > 0.2 | 1 | 2.31 | 0.5 (≈ 1.96 µM) | > 4 | > 4 | 1.3 (≈ 5.09 µM) | 2.01 | > 4 | > 0.5 | 2.01 | Toxic | > 0.2 | 2.61 | > 0.5 | EC50 [18]: > 4 µg/mL; EC50 [19]: 1.8 µg/mL (≈ 7.05 µM); EC50 [20]: 3.5 µg/mL (≈ 13.7 µM); EC50 [21]: 4 µg/mL (≈ 15.7 µM); MCC [22]: ≥ 4 µg/mL; EC50 [25]: 1.4 µg/mL (≈ 5.48 µM); EC50 [26]: > 0.8 µg/mL |
| C/C(=N\NC(=O)c1ccncc1)c1ccc(O)cc1 | 2.01 | 91 (≈ 356 µM) | 100 | > 20 | > 20 | > 20 | 100 | 2.31 | 95 (≈ 372 µM) | > 20 | > 20 | > 20 | 2.01 | > 20 | > 95 | 2.01 | Toxic | > 20 | 2.31 | > 95 | EC50 [18]: > 20 µg/mL; EC50 [19]: > 20 µg/mL; EC50 [20]: > 20 µg/mL; EC50 [21]: > 20 µg/mL; MCC [22]: ≥ 20 µg/mL; EC50 [25]: > 20 µg/mL; EC50 [26]: > 20 µg/mL |
| C/C(=N\NC(=O)c1ccncc1)c1ccc(O)cc1O | 2.04 | 2.1 (≈ 7.74 µM) | > 100 | > 4 | > 0.8 | > 0.8 | 4 | 2.34 | 9.7 (≈ 35.8 µM) | > 4 | > 4 | 2 (≈ 7.37 µM) | 2.04 | > 4 | > 9.7 | 2.04 | Toxic | > 0.8 | 2.64 | > 9.7 | EC50 [18]: > 4 µg/mL; EC50 [19]: 8 µg/mL (≈ 29.5 µM); EC50 [20]: 2.5 µg/mL (≈ 9.22 µM); EC50 [21]: 2 µg/mL (≈ 7.37 µM); MCC [22]: 20 µg/mL; EC50 [25]: 2.5 µg/mL (≈ 9.22 µM); EC50 [26]: > 4 µg/mL |
| C/C(=N\NC(=O)c1ccncc1)c1ccccc1Br | 2.41 |  |  |  |  |  |  | 2.41 |  |  |  |  | 2.71 |  |  | 2.41 | Toxic |  | 2.71 |  |  |
| OC(Cn1cncn1)(Cn1cncn1)c1ccc(F)cc1F [FLUCONAZOLE] |  |  |  |  |  |  |  | 2.64 |  |  |  |  |  |  |  |  |  |  | 2.64 |  |  |
| NNC(=O)c1ccncc1 [ISONIAZID] | 1.74 |  |  |  |  |  |  | 2.04 |  |  |  |  | 1.74 |  |  | 2.04 |  |  | 2.34 |  |  |
| Cc1ccnc2c1NC(=O)c1cccnc1N2C1CC1 [NEVIRAPINE] |  |  |  |  |  |  |  |  | > 4 |  |  |  |  |  |  |  |  |  |  | > 4 |  |
| CCn1cc(C(=O)O)c(=O)c2cc(F)c(N3CCNCC3)cc21 [NORFLOXACIN] | 2.61 |  |  |  |  |  |  |  |  |  |  |  | 2.61 |  |  | 2.61 |  |  |  |  |  |
| Cc1cn([C@H]2C[C@H](N=[N+]=[N-])[C@@H](CO)O2)c(=O)[nH]c1=O [ZIDOVUDINE] |  |  |  |  |  |  |  |  | > 25 |  |  |  |  |  |  |  |  |  |  |  |  |
